Target: T1, D2HDH (Haloferax mediterranei, UniProt Q2VEQ7)
T1 construct: gene ddh; homodimer (~66 kDa; 79 kDa by gel filtration); residues 1-308; no tag mentioned
Assay: X-ray crystal structure, […] Å
Assay type: binding
Conditions: formed by turnover in the crystallisation drop; NADP+ bound; modelled in subunit B as 2:1 mixture of 2-ketohexanoic acid and hydroxy acid

T1 sequence (Q2VEQ7 whole entry, the tested form may be a part): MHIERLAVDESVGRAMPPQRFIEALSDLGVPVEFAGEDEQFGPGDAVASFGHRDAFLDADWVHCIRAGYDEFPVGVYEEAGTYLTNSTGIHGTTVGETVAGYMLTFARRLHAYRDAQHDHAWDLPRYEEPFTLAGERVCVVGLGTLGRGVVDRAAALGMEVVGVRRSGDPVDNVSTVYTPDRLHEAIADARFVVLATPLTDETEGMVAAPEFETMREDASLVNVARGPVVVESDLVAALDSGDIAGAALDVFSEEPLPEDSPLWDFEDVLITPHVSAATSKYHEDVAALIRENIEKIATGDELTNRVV

## CCCC[C@@H](O)C(=O)O [D-2-hydroxyhexanoic acid]
  X-ray crystal structure, 1.57 Å: D-2-hydroxyhexanoic acid (beige carbons) bound to the active site of the D2HDH/NADP^+ complex
